ChEMBL document CHEMBL1148828, “Deoxycholic acid-derived tetraoxane antimalarials and antiproliferatives(1)” (J Med Chem, 2007)
Each block holds one compound with its values, some of them ahead of it.

Experiments:
[1] = tested on: Plasmodium falciparum; experiment: Antimalarial activity against Plasmodium falciparum W2; assay type: functional, organism-based
[2] = tested on: Plasmodium falciparum; experiment: Antimalarial activity against Plasmodium falciparum D6; assay type: functional, organism-based
[3] = tested on: Plasmodium falciparum; experiment: Antimalarial activity against Plasmodium falciparum TM91C235; assay type: functional, organism-based
[4] = tested on: HOP-92; experiment: Antiproliferative activity against human HOP92 cells after 48 hrs; assay type: functional; conditions: Homo sapiens, HOP-92, 48 h
[5] = tested on: NCI; experiment: Growth inhibition of human NCI DTP 60 cells; assay type: functional
[6] = tested on: LOX IMVI; experiment: Antiproliferative activity against human LOX IMVI cells after 48 hrs; assay type: functional
[7] = Plasmodium falciparum, TM91C235

Structure (SMILES): COC(=O)CC[C@@H](C)[C@H]1CC[C@H]2[C@@H]3CC[C@@H]4CC5(CC[C@]4(C)[C@H]3C[C@H](OC(C)=O)[C@]12C)OOC1(CCCCC1)OO5
- IC50 ([1]; Plasmodium falciparum, W2): 112 nM
- IC90 ([1]; Plasmodium falciparum, W2): 170 nM
- IC50 ([2]; Plasmodium falciparum, D6): 201 nM
- IC90 ([2]; Plasmodium falciparum, D6): 258 nM

Structure (SMILES): CCCN(CCC)C(=O)CC[C@@H](C)[C@H]1CC[C@H]2[C@@H]3CC[C@@H]4CC5(CC[C@]4(C)[C@H]3C[C@H](OC(C)=O)[C@]12C)OOC1(CCCCC1)OO5
- IC50 ([1]; Plasmodium falciparum, W2): 150 nM
- IC90 ([1]; Plasmodium falciparum, W2): 169 nM
- IC50 [3, 7]: 169 nM
- IC90 [3, 7]: 203 nM
- IC50 ([2]; Plasmodium falciparum, D6): 179 nM
- IC90 ([2]; Plasmodium falciparum, D6): 197 nM

Structure (SMILES): CC(=O)O[C@H]1C[C@H]2[C@@H](CC[C@@H]3CC4(CC[C@@]32C)OOC2(CCCCC2)OO4)[C@@H]2CC[C@H]([C@H](C)CCC(N)=O)[C@@]12C
- IC50 ([1]; Plasmodium falciparum, W2): 19.1 nM
- IC90 ([1]; Plasmodium falciparum, W2): 35.6 nM
- IC50 [3, 7]: 40.9 nM
- IC90 [3, 7]: 76.7 nM
- IC50 ([2]; Plasmodium falciparum, D6): 32.7 nM
- IC90 ([2]; Plasmodium falciparum, D6): 50.4 nM

Structure (SMILES): CC(=O)O[C@H]1C[C@H]2[C@@H](CC[C@@H]3CC4(CC[C@@]32C)OOC2(CCCCC2)OO4)[C@@H]2CC[C@H]([C@H](C)CCC(=O)N3CCCCC3)[C@@]12C
- IC50 ([1]; Plasmodium falciparum, W2): 55.5 nM
- IC90 ([1]; Plasmodium falciparum, W2): 78.6 nM
- IC50 [3, 7]: 84.7 nM
- IC90 [3, 7]: 125 nM
- IC50 ([2]; Plasmodium falciparum, D6): 106 nM
- IC90 ([2]; Plasmodium falciparum, D6): 131 nM

Structure (SMILES): CC(=O)O[C@H]1C[C@H]2[C@@H]([C@H](OC(C)=O)C[C@@H]3CC4(CC[C@@]32C)OOC2(CCCCC2)OO4)[C@@H]2CC[C@H]([C@H](C)CCC(=O)Nc3ccccc3)[C@@]12C
- IC50 ([1]; Plasmodium falciparum, W2): 11.2 nM
- IC90 ([1]; Plasmodium falciparum, W2): 25.9 nM
- IC50 [3, 7]: 10.3 nM
- IC90 [3, 7]: 27.8 nM
- IC50 ([2]; Plasmodium falciparum, D6): 6.7 nM
- IC90 ([2]; Plasmodium falciparum, D6): 11.7 nM

Structure (SMILES): CC(=O)O[C@H]1C[C@H]2[C@@H](CC[C@@H]3CC4(CC[C@@]32C)OOC2(CCCCC2)OO4)[C@@H]2CC[C@H]([C@H](C)CCC(=O)NN)[C@@]12C
- IC50 ([1]; Plasmodium falciparum, W2): 347 nM
- IC50 [3, 7]: 347 nM
- IC50 ([2]; Plasmodium falciparum, D6): 347 nM

Structure (SMILES): CC(=O)O[C@H]1C[C@H]2[C@@H](CC[C@@H]3CC4(CC[C@@]32C)OOC2(CCCCC2)OO4)[C@@H]2CC[C@H]([C@H](C)CCC(=O)O)[C@@]12C
- IC50 ([1]; Plasmodium falciparum, W2): 93.9 nM
- IC90 ([1]; Plasmodium falciparum, W2): 178 nM
- IC50 ([2]; Plasmodium falciparum, D6): 107 nM
- IC90 ([2]; Plasmodium falciparum, D6): 310 nM

Structure (SMILES): CC(=O)O[C@H]1C[C@H]2[C@@H](CC[C@@H]3CC4(CC[C@@]32C)OOC2(CCCCC2)OO4)[C@@H]2CC[C@H]([C@H](C)CCC(=O)Nc3ccccc3)[C@@]12C
- IC50 ([1]; Plasmodium falciparum, W2): 81.6 nM
- IC90 ([1]; Plasmodium falciparum, W2): 195 nM
- IC50 ([2]; Plasmodium falciparum, D6): 133 nM
- IC90 ([2]; Plasmodium falciparum, D6): 195 nM

Structure (SMILES): COC(=O)CC[C@@H](C)[C@H]1CC[C@H]2[C@@H]3CC[C@@H]4CC5(CC[C@]4(C)[C@H]3C[C@H](OC(C)=O)[C@]12C)OOC1(CCC(C)CC1)OO5 (stereo in doubt; 3b)
- IC50 ([1]; Plasmodium falciparum, W2): 34.2 nM
- IC90 ([1]; Plasmodium falciparum, W2): 49.3 nM
- IC50 [3, 7]: 42.4 nM
- IC90 [3, 7]: 74.9 nM
- IC90 [2]: 26 nM
- IC50 ([2]; Plasmodium falciparum, D6): 39.2 nM

Structure (SMILES): COC(=O)CC[C@@H](C)[C@H]1CC[C@H]2[C@@H]3CC[C@@H]4CC5(CC[C@]4(C)[C@H]3C[C@H](OC(C)=O)[C@]12C)OOC1(CCC(C)CC1)OO5 (stereo in doubt; 3c)
- IC50 [1]: 38.3 nM
- IC90 [1]: 80.3 nM
- IC50 [3]: 50.8 nM
- IC90 [3]: 77.3 nM
- IC50 [2]: 38 nM
- IC90 [2]: 62.9 nM

Structure (SMILES): CC(=O)O[C@H]1C[C@H]2[C@@H](CC[C@@H]3CC4(CC[C@@]32C)OOC2(CCC(C)CC2)OO4)[C@@H]2CC[C@H]([C@H](C)CCC(=O)O)[C@@]12C (stereo in doubt; 4b)
- IC50 [1]: 12.1 nM
- IC90 ([1]; Plasmodium falciparum, W2): 84.8 nM
- IC50 [3, 7]: 19.9 nM
- IC90 [3, 7]: 47 nM
- IC50 ([2]; Plasmodium falciparum, D6): 11.6 nM
- IC90 ([2]; Plasmodium falciparum, D6): 17.1 nM

Structure (SMILES): CC(=O)O[C@H]1C[C@H]2[C@@H](CC[C@@H]3CC4(CC[C@@]32C)OOC2(CCC(C)CC2)OO4)[C@@H]2CC[C@H]([C@H](C)CCC(=O)O)[C@@]12C (stereo in doubt; 4c)
- IC50 [1]: 42.2 nM
- IC90 [1]: 89.7 nM
- IC50 [3]: 31.8 nM
- IC90 [3]: 93 nM
- IC50 [2]: 19.2 nM
- IC90 [2]: 31.7 nM

Structure (SMILES): CC(=O)O[C@H]1C[C@H]2[C@@H](CC[C@@H]3CC4(CC[C@@]32C)OOC2(CCC(C)CC2)OO4)[C@@H]2CC[C@H]([C@H](C)CCC(N)=O)[C@@]12C (stereo in doubt; 13)
- IC50 [1]: 19.4 nM
- IC90 [1]: 118 nM
- IC50 [3]: 28 nM
- IC90 [3]: 53.5 nM
- IC50 [2]: 22.9 nM
- IC90 [2]: 31.4 nM

Structure (SMILES): CCCNC(=O)CC[C@@H](C)[C@H]1CC[C@H]2[C@@H]3CC[C@@H]4CC5(CC[C@]4(C)[C@H]3C[C@H](OC(C)=O)[C@]12C)OOC1(CCC(C)CC1)OO5 (stereo in doubt; 14)
- IC50 [1]: 10.1 nM
- IC90 ([1]; Plasmodium falciparum, W2): 30.5 nM
- IC50 [3]: 12.3 nM
- IC90 [3]: 23.4 nM
- IC50 [2]: 9.81 nM
- IC90 ([2]; Plasmodium falciparum, D6): 20.2 nM

Structure (SMILES): CC(=O)O[C@H]1C[C@H]2[C@@H](CC[C@@H]3CC4(CC[C@@]32C)OOC2(CCC(C)CC2)OO4)[C@@H]2CC[C@H]([C@H](C)CCC(=O)Nc3ccccc3)[C@@]12C (stereo in doubt; 18)
- IC50 [1]: 23.1 nM
- IC90 ([1]; Plasmodium falciparum, W2): 38.9 nM
- IC50 [3]: 32.9 nM
- IC90 [3]: 42.7 nM
- IC50 [2]: 23.3 nM
- IC90 [2]: 33.7 nM

Structure (SMILES): CC(=O)O[C@H]1C[C@H]2[C@@H](CC[C@@H]3CC4(CC[C@@]32C)OOC2(CCC(C)CC2)OO4)[C@@H]2CC[C@H]([C@H](C)CCC(=O)Nc3ccccc3)[C@@]12C (stereo in doubt; 19)
- GI50 [4]: < 5 nM
- LC50 (concentration killing 50% of cells) [4]: 15.2 µM
- TGI [4]: 130 nM
- IC50 [1]: 50.8 nM
- IC90 [1]: 76.9 nM
- GI50 ([5]; Homo sapiens, NCI): < 5 nM
- IC50 [3]: 66.8 nM
- IC90 [3]: 109 nM
- IC50 [2]: 50 nM
- IC90 [2]: 77.5 nM

Structure (SMILES): CC(=O)O[C@H]1C[C@H]2[C@@H]([C@H](OC(C)=O)C[C@@H]3CC4(CC[C@@]32C)OOC2(CCC(C)CC2)OO4)[C@@H]2CC[C@H]([C@H](C)CCC(=O)Nc3ccccc3)[C@@]12C (stereo in doubt; 20)
- IC50 [1]: 7.86 nM
- IC90 [1]: 10.1 nM
- GI50 [5]: 160 nM
- IC50 [3]: 6.24 nM
- IC90 [3]: 11 nM
- IC50 [2]: 5.48 nM
- IC90 [2]: 8.07 nM
- LC50 (concentration killing 50% of cells) [6]: 1890 nM
- GI50 ([6]; Homo sapiens, LOX IMVI, 48 h): 161 nM
- TGI ([6]; Homo sapiens, LOX IMVI, 48 h): 417 nM

Structure (SMILES): C[C@@H]1CC[C@H]2[C@@H](C)C(=O)O[C@@H]3O[C@@]4(C)CC[C@@H]1[C@]32OO4 [ARTEMISININ]
- IC50 ([1]; Plasmodium falciparum, W2): 6.7 nM
- IC90 ([1]; Plasmodium falciparum, W2): 11.5 nM
- IC50 [3, 7]: 13 nM
- IC90 [3, 7]: 17.4 nM
- IC50 ([2]; Plasmodium falciparum, D6): 9 nM
- IC90 ([2]; Plasmodium falciparum, D6): 12.8 nM

- IC90 ([1]; Plasmodium falciparum, W2): 349 nM
- IC90 ([2]; Plasmodium falciparum, D6): 13.7 nM
Structure (SMILES): CCN(CC)CCCC(C)Nc1ccnc2cc(Cl)ccc12 (configuration not stated) [CHLOROQUINE]

Structure (SMILES): O[C@@H](c1cc(C(F)(F)F)nc2c(C(F)(F)F)cccc12)[C@H]1CCCCN1 [MEFLOQUINE]
- IC90 ([1]; Plasmodium falciparum, W2): 8.41 nM
- IC90 [3, 7]: 65.7 nM
- IC90 ([2]; Plasmodium falciparum, D6): 21.6 nM
